Measurements reported in patent publication US20080318792A1, “Extension of pollination period” (priority 2007, published 2008).
Structures can show the parent of a compound that is named as a salt.

System: Hughes 1883 hybrid corn seed
Experiment: Soil germination/emergence of corn seed treated with different forms of ABA in slurry
Format: in vivo
Conditions: 25 g/cwt as free acid
Protocol: Three forms of ABA were evaluated in this experiment 1) free acid, 2) ammonium salt, and 3) sodium salt. The cation is referred to as the “counter-ion” below. […] The treatments were made up in 3 ml samples of experimental aqueous seed treatment slurry. All of the seed treatment slurry samples contained CF-Clear film-forming agent and Colorcoat Red (Becker Underwood), each at 1 oz/cwt, and 0.167 oz/cwt Maxim XL fungicide (Syngenta). The slurry application volume was 20 oz/cwt (cwt=100 lbs of seed).
One hundred gram samples of Hughes 1883 hybrid corn seed were treated with the experimental slurries using a Hege 11 seed treater with a six-inch bowl.
The seed was planted in plastic boxes containing 1 kg of typical agricultural silt loam. Fifty seeds were planted 3 cm deep in each plastic box, and the soil in the box was adjusted to 21% soil moisture (wet-weight basis). Two replications of the experiment were incubated under constant light in a 25° C. chamber and two replications incubated under constant light in an 18° C. chamber. The boxes were watered up to the correct weight daily, and checked for emergence. Daily counts of seedlings were continued until emergence ceased. The final count of emerged seedlings was expressed as a percentage of the 50 seeds planted (GERM).
The daily counts were converted to proportions of the final germination of the box, and a Gompertz curve was fitted to the data from each box using SAS Proc NLIN. From the parameters of the model, median germination time (T50) and quartile range (QR) were estimated for each box. Analysis of variance was performed and means calculated for each of the three responses (GERM, T50, QR).

Structure (SMILES)	Final emergence (soil 18° C.) [%]	QR (soil 18° C.) [days]	T50 (soil 18° C.) [days]	Final emergence (soil 25° C.) [%]	QR (soil 25° C.) [days]	T50 (soil 25° C.) [days]
CC1=CC(=O)CC(C)(C)[C@@]1(O)/C=C/C(C)=C\C(=O)O [ABA ammonium salt]	91	3.52	11.2	91	1.34	7.4
CC1=CC(=O)CC(C)(C)[C@@]1(O)/C=C/C(C)=C\C(=O)[O-].[Na+] [ABA sodium salt]	92	3.36	10.9	92	1.31	7.1
